Measurements: patent EP3046573B1, “AMYLIN ANALOGUES” (Zealand Pharma A/S, priority 2013, dated 2015)
Where two headings read alike, the source gives them in different places. Numbered stars: 1 amine (or outer) side, 2 acyl side, 3 side chain; on linkers, the order of the positions; unused ones are H or OH. Bridge positions count the residues as written; N and C are the ends. Square brackets hold non-standard residues; d marks the D form. Peptide text beside a SMILES is read from it. * marks the point of attachment. C20 diacid = O=C(O)CCCCCCCCCCCCCCCCCCC(=O)*; γGlu = O=C(O)[C@H](CCC(=O)[*:2])N[*:1]; NMeI = CC[C@H](C)[C@H](NC)C(=O)O; Sar = CNCC(=O)O

Experiments:
[1] = molecular target: T1, human calcitonin receptor (hCTR2) (Homo sapiens, UniProt P30988); assay: hCTR2 assay: induction of cAMP (AlphaScreen cAMP Assay kit) in COS7 cells expressing hCTR2; format: cell-based; settings: cAMP induction in COS7 cells expressing hCTR2; average of a minimum of 3 determinations; read-out: hCTR2 EC50
T1 construct: expressed in transfected cells
T1 sequence (P30988 25-474): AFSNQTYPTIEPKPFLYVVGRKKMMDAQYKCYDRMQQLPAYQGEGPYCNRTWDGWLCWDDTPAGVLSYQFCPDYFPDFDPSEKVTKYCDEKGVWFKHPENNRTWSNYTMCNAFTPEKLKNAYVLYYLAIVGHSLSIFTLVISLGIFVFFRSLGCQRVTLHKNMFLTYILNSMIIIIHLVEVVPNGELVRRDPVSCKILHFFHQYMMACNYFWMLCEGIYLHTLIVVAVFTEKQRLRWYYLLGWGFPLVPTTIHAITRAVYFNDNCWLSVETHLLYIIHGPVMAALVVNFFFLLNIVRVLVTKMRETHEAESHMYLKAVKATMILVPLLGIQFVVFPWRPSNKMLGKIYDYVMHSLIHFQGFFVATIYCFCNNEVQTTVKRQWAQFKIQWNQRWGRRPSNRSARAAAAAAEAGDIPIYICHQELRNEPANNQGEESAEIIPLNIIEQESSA
Method in brief: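 Cells were seeded one day ahead, washed, then exposed to rising peptide concentrations for 15 min at 37° C in the presence of 100 µM IBMX. After lysis for 10 min at room temperature, cAMP was quantified by AlphaScreen and EC50 values derived by 4PL fitting.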

[2] = molecular target: T2, human amylin receptor 3 (hAMYR3) consisting of hCTR2 co-expressed with human Receptor Activity Modifying Protein 3 (hRAMP3) (Homo sapiens, UniProt O60896+P30988); assay: hAMYR3 assay: induction of cAMP (AlphaScreen cAMP Assay kit) in COS7 cells expressing hAMYR3; format: cell-based
T2 construct: expressed in transfected cells
T2 sequence (P30988 25-474): T1 sequence (P30988 25-474)
T2 sequence (O60896 24-148 partner): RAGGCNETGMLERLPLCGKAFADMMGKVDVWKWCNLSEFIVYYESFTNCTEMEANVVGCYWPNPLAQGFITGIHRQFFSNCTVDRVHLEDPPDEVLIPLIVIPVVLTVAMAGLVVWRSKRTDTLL
Method in brief: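 cAMP accumulation read by AlphaScreen in lysates of RAMP-naive COS7 cells stably transfected with hCTR2 plus hRAMP3. Cells exposed to peptide dilutions for 15 min, 37° C, with 100 µM IBMX; 4PL fitting gave EC50 and efficacy relative to pramlintide.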

[3] = Solubility assessment (turbidity absorbance at 325 nm); format: physicochemical; settings: stock 2 mg/ml diluted 1:1, ambient temperature (typically 25°C), n=1; for Solubility, Acetate buffer pH 4: 100 mM acetate buffer pH 4.0; for Solubility, Acetate buffer pH 5: 100 mM acetate buffer pH 5.0; for Solubility, Histidine buffer pH 6: 100 mM histidine buffer pH 6.0; for Solubility, Histidine buffer pH 7: 100 mM histidine buffer pH 7.0; for Solubility, Phosphate buffer pH 6: 100 mM phosphate buffer pH 6.0; for Solubility, Phosphate buffer pH 7: 100 mM phosphate buffer pH 7.0; for Solubility, Phosphate buffer pH 7.5: 100 mM phosphate buffer pH7.5
Method in brief: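 Turbidimetric screen across pH 4.0–7.5 in 100 mM acetate, histidine and phosphate buffers. A 2 mg/ml peptide stock (pH 2.5) was diluted 1:1 into each, then A325 measured at ambient temperature; values ≤ 0.02 AU denoted solubility of 1 mg/ml or more.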

[4] = cAMP induction in COS7 cells expressing hAMYR3, average of a minimum of 3 determinations, read-out: hAMY R3 EC50

EC50 [2, 4] [nM]	Structure (SMILES)	EC50 [1] [nM]	EC50 [2] [nM]	Solubility, Acetate buffer pH 4 [3]	Solubility, Acetate buffer pH 5 [3]	Solubility, Histidine buffer pH 6 [3]	Solubility, Histidine buffer pH 7 [3]	Solubility, Phosphate buffer pH 6 [3]	Solubility, Phosphate buffer pH 7 [3]	Solubility, Phosphate buffer pH 7.5 [3]
–	CC[C@H](C)[C@@H](C(=O)N[C@@H](CC(C)C)C(=O)N[C@@H](CO)C(=O)N[C@@H](CO)C(=O)N[C@H](C(=O)N[C@@H](CCC(=O)O)C(=O)N[C@H](C(=O)NCC(=O)N[C@@H](CO)C(=O)N[C@@H](CCC(=O)O)C(=O)N[C@H](C(=O)N1CCC[C@H]1C(N)=O)[C@@H](C)O)C(C)C)[C@@H](C)O)N(C)C(=O)[C@H](C)NC(=O)CN(C)C(=O)[C@H](Cc1ccccc1)NC(=O)[C@H](CO)NC(=O)[C@H](CO)NC(=O)[C@H](CO)NC(=O)[C@H](CO)NC(=O)[C@H](CCCNC(=N)N)NC(=O)[C@H](Cc1c[nH]cn1)NC(=O)[C@H](CC(C)C)NC(=O)[C@H](Cc1ccccc1)NC(=O)[C@H](CCC(=O)O)NC(=O)[C@H](C)NC(=O)[C@H](CC(C)C)NC(=O)[C@H](CCCNC(=N)N)NC(=O)[C@H](CCC(N)=O)NC(=O)[C@@H](NC(=O)[C@H](C)NC(=O)[C@@H]1CSSC[C@H](NC(=O)[C@H](CCCNC(=N)N)NC(=O)CC[C@H](NC(=O)CCCCCCCCCCCCCCCCCCC(=O)O)C(=O)O)C(=O)NCC(=O)N[C@@H]([C@@H](C)O)C(=O)N[C@@H](C)C(=O)N[C@@H]([C@@H](C)O)C(=O)N1)[C@@H](C)O [Compound 130, [19CD]-isoGlu-RC()GTATC()ATQRLAEFLHRSSSSF-Gly(Me)-A-Ile(Me)-LSSTEVGSETP-NH2] ({C20 diacid-γGlu}-RCGTATCATQRLAEFLHRSSSSF[Sar]A[NMeI]LSSTEVGSETP-NH2; disulfide 2-7)	0.11	0.15	SS (SS indicates solubility ≥ 1mg/ml)	SS (SS indicates solubility ≥ 1mg/ml)	SS (SS indicates solubility ≥ 1mg/ml)	SS (SS indicates solubility ≥ 1mg/ml)	SS (SS indicates solubility ≥ 1mg/ml)	SS (SS indicates solubility ≥ 1mg/ml)	SS (SS indicates solubility ≥ 1mg/ml)
–	CC[C@H](C)[C@@H](C(=O)N[C@@H](CC(C)C)C(=O)N[C@@H](CO)C(=O)N[C@@H](CO)C(=O)N[C@H](C(=O)N[C@@H](CCC(=O)O)C(=O)N[C@H](C(=O)NCC(=O)N[C@@H](CO)C(=O)N[C@@H](CCC(=O)O)C(=O)N[C@H](C(=O)N1CCC[C@H]1C(N)=O)[C@@H](C)O)C(C)C)[C@@H](C)O)N(C)C(=O)[C@H](C)NC(=O)CN(C)C(=O)[C@H](Cc1ccccc1)NC(=O)[C@H](CO)NC(=O)[C@H](CO)NC(=O)[C@H](CO)NC(=O)[C@H](CO)NC(=O)[C@H](CCCNC(=N)N)NC(=O)[C@H](Cc1c[nH]cn1)NC(=O)[C@H](CC(C)C)NC(=O)[C@H](Cc1ccccc1)NC(=O)[C@H](CCC(=O)O)NC(=O)[C@H](C)NC(=O)[C@H](CC(C)C)NC(=O)[C@H](CCCNC(=N)N)NC(=O)CNC(=O)[C@@H](NC(=O)[C@H](C)NC(=O)[C@@H]1CSSC[C@H](NC(=O)[C@H](CCCNC(=N)N)NC(=O)CC[C@H](NC(=O)CCCCCCCCCCCCCCCCCCC(=O)O)C(=O)O)C(=O)NCC(=O)N[C@@H]([C@@H](C)O)C(=O)N[C@@H](C)C(=O)N[C@@H]([C@@H](C)O)C(=O)N1)[C@@H](C)O [Compound 131, [19CD]-isoGlu-RC()GTATC()ATGRLAEFLHRSSSSF-Gly(Me)-A-Ile(Me)-LSSTEVGSETP-NH2] ({C20 diacid-γGlu}-RCGTATCATGRLAEFLHRSSSSF[Sar]A[NMeI]LSSTEVGSETP-NH2; disulfide 2-7)	0.1	0.18	SS (SS indicates solubility ≥ 1mg/ml)	SS (SS indicates solubility ≥ 1mg/ml)	SS (SS indicates solubility ≥ 1mg/ml)	SS (SS indicates solubility ≥ 1mg/ml)	SS (SS indicates solubility ≥ 1mg/ml)	SS (SS indicates solubility ≥ 1mg/ml)	SS (SS indicates solubility ≥ 1mg/ml)
0.35	CC[C@H](C)[C@@H](C(=O)N[C@@H](CC(C)C)C(=O)N[C@@H](CO)C(=O)N[C@@H](CO)C(=O)N[C@H](C(=O)N[C@@H](CCC(=O)O)C(=O)N[C@H](C(=O)NCC(=O)N[C@@H](CO)C(=O)N[C@@H](CCC(=O)O)C(=O)N[C@H](C(=O)N1CCC[C@H]1C(N)=O)[C@@H](C)O)C(C)C)[C@@H](C)O)N(C)C(=O)[C@H](C)NC(=O)CN(C)C(=O)[C@H](Cc1ccccc1)NC(=O)[C@H](CO)NC(=O)[C@H](CO)NC(=O)[C@H](CO)NC(=O)[C@H](CO)NC(=O)[C@H](CCCNC(=N)N)NC(=O)[C@H](Cc1c[nH]cn1)NC(=O)[C@H](CC(C)C)NC(=O)[C@H](Cc1ccccc1)NC(=O)[C@H](CCC(=O)O)NC(=O)[C@H](C)NC(=O)[C@H](CC(C)C)NC(=O)[C@H](CCCNC(=N)N)NC(=O)CNC(=O)[C@@H](NC(=O)[C@H](C)NC(=O)[C@@H]1CSSC[C@H](NC(=O)[C@H](CCCNC(=N)N)NC(=O)CC[C@H](NC(=O)CCCCCCCCCCCCCCCCCCC(=O)O)C(=O)O)C(=O)N[C@@H](CO)C(=O)N[C@@H]([C@@H](C)O)C(=O)N[C@@H](C)C(=O)N[C@@H]([C@@H](C)O)C(=O)N1)[C@@H](C)O [Compound 132, [19CD]-isoGlu-RC()STATC()ATGRLAEFLHRSSSSF-Gly(Me)-A-Ile(Me)-LSSTEVGSETP-NH2] ({C20 diacid-γGlu}-RCSTATCATGRLAEFLHRSSSSF[Sar]A[NMeI]LSSTEVGSETP-NH2; disulfide 2-7)	0.22	–	SS (SS indicates solubility ≥ 1mg/ml)	SS (SS indicates solubility ≥ 1mg/ml)	SS (SS indicates solubility ≥ 1mg/ml)	SS (SS indicates solubility ≥ 1mg/ml)	SS (SS indicates solubility ≥ 1mg/ml)	SS (SS indicates solubility ≥ 1mg/ml)	SS (SS indicates solubility ≥ 1mg/ml)
0.36	CC[C@H](C)[C@@H](C(=O)N[C@@H](CC(C)C)C(=O)N[C@@H](CO)C(=O)N[C@@H](CO)C(=O)N[C@H](C(=O)N[C@@H](CCC(=O)O)C(=O)N[C@H](C(=O)NCC(=O)N[C@@H](CO)C(=O)N[C@@H](CCC(=O)O)C(=O)N[C@H](C(=O)N1CCC[C@H]1C(N)=O)[C@@H](C)O)C(C)C)[C@@H](C)O)N(C)C(=O)[C@H](C)NC(=O)CN(C)C(=O)[C@H](Cc1ccccc1)NC(=O)[C@H](CO)NC(=O)[C@H](CO)NC(=O)[C@H](CO)NC(=O)[C@H](CO)NC(=O)[C@H](CCCNC(=N)N)NC(=O)[C@H](Cc1c[nH]cn1)NC(=O)[C@H](CC(C)C)NC(=O)[C@H](Cc1ccccc1)NC(=O)[C@H](CCC(=O)O)NC(=O)[C@H](C)NC(=O)[C@H](CC(C)C)NC(=O)[C@H](CCCNC(=N)N)NC(=O)[C@H](CO)NC(=O)[C@@H](NC(=O)[C@H](C)NC(=O)[C@@H]1CSSC[C@H](NC(=O)[C@H](CCCNC(=N)N)NC(=O)CC[C@H](NC(=O)CCCCCCCCCCCCCCCCCCC(=O)O)C(=O)O)C(=O)N[C@@H](CO)C(=O)N[C@@H]([C@@H](C)O)C(=O)N[C@@H](C)C(=O)N[C@@H]([C@@H](C)O)C(=O)N1)[C@@H](C)O [Compound 133, [19CD]-isoGlu-RC()STATC()ATSRLAEFLHRSSSSF-Gly(Me)-A-Ile(Me)-LSSTEVGSETP-NH2] ({C20 diacid-γGlu}-RCSTATCATSRLAEFLHRSSSSF[Sar]A[NMeI]LSSTEVGSETP-NH2; disulfide 2-7)	0.3	–	SS (SS indicates solubility ≥ 1mg/ml)	SS (SS indicates solubility ≥ 1mg/ml)	SS (SS indicates solubility ≥ 1mg/ml)	SS (SS indicates solubility ≥ 1mg/ml)	SS (SS indicates solubility ≥ 1mg/ml)	SS (SS indicates solubility ≥ 1mg/ml)	SS (SS indicates solubility ≥ 1mg/ml)
